Earlier results, collected in patent US6399785B1, “Multiply-substituted fullerenes” (C-Sixty, Inc., priority 1995, dated 2002).
Read-outs that look alike come from different tables or passages of the source.

Columns and labels:
HIV [1] = details: H9 cells chronically infected with HIV, in vitro
HIV [2] = details: human PBMC acutely infected with HIV, in vitro

Substance: bis (monosuccinimide) derivative of p,p′-bis (2-aminoethyl) diphenyl C60
- antiviral activity (HIV [1]): showed antiviral activity
- antiviral activity (HIV [2]): showed antiviral activity
